This note sets out measurements from patent publication US7572794B2, “Anthranilamide pyridinureas as vascular endothelial growth factor (VEGF) receptor kinase inhibitors” (Bayer Schering Pharma AG, priority 2004, dated 2009).

One experiment addresses T1, KDR-Kinase (VEGFR-2) (Homo sapiens, UniProt P35968).
T1 construct: GST-kinase domain fusion construct of the KDR kinase; GST
Put plainly: KDR Kinase Inhibition. It counts as biochemical. The conditions noted are these: GST-kinase domain fusion construct of KDR; poly(Glu4Tyr) substrate, 32P-ATP, 10 min. The procedure:
Kinase activity was measured with a GST-kinase domain fusion construct of the KDR kinase according to the following protocol to obtain concentration response curves. Components were added into a microtiterplate in the following sequence: 10 μl of inhibitor in threefold final concentration [3% DMSO in buffer (40 mM TrisCl pH 7.5; 1 mM DTT, 1 mM MnCl2, 10 mM MgCl2, 2.5 Promille Polyethyleneglycol 20000)]and 10 μl of substrate mixture [24 μM ATP, 24 μg/ml poly(Glu4Tyr) in buffer, specific activity approx. 500 cpm/pmol ^32P-[…]ATP]. Reaction was started by adding 10 μl of enzyme preparation diluted appropriately in buffer that contains 10 μM vanadate. After incubation for exactly 10 min the reaction was stopped by adding of 10 μl stop solution (250 mM EDTA). 10 μl of the reaction mixture were transferred to phosphocellulose filters. The filters were washed in 0.1% phosphoric acid, dried before meltilex scintillator was applied (Waltac, Perkin-Elmer) and the radioactivity was counted.

Experiment [1] deals with T2, Cytochrome P450 isoenzyme 2C9 (Homo sapiens, UniProt P11712).
T2 construct: host or cells: baculovirus/insect cells
T2 sequence (P11712 whole entry): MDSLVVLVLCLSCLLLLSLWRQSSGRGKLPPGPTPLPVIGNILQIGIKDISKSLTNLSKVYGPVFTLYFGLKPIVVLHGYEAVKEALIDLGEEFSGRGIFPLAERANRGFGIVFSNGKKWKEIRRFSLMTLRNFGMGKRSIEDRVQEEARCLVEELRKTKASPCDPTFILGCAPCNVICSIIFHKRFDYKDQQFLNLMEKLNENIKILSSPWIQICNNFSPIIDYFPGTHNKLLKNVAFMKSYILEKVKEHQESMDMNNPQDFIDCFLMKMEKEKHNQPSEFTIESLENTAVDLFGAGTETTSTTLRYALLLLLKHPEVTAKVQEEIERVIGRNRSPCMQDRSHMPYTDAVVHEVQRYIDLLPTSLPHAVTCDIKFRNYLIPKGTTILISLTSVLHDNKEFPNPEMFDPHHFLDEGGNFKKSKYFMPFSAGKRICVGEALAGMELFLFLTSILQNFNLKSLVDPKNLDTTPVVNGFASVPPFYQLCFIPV
Put plainly: Cytochrome P450 Inhibition (2C9). The conditions noted are these: baculovirus/insect cell-expressed human isoenzyme, method of Crespi et al.; read-out: IC50 CYP 2C9. It counts as in vitro ADME. On the procedure: (§1) Cytochrome P450 Inhibition
(§2) The Cytochrome P450 isoenzyme inhibition was performed according to the publication of Crespi et al. (Anal. Biochem., 1997, 248, 188-190) with use of the baculovirus/insect cell-expressed, human Cytochrome P 450 isoenzymes (2C9 and 2C19).

The target in experiment [2] is T3, Cytochrome P450 isoenzyme 2C19 (Homo sapiens, UniProt P33261).
T3 construct: host or cells: baculovirus/insect cells
T3 sequence (P33261 whole entry): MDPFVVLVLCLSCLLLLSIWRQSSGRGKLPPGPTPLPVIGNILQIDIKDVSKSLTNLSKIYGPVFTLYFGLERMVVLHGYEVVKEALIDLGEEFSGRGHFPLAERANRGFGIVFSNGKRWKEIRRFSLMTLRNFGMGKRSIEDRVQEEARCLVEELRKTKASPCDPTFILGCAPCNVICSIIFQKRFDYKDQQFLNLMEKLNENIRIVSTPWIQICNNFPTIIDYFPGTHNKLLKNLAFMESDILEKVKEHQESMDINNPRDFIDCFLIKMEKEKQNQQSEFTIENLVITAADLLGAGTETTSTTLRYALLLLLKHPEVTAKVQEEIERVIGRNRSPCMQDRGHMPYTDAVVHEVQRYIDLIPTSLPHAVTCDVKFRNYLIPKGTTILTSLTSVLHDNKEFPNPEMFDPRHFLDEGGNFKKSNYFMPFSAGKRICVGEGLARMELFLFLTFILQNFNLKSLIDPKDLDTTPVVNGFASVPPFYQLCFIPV
The experiment in a line: Cytochrome P450 Inhibition (2C19). It counts as in vitro ADME. The conditions noted are these: baculovirus/insect cell-expressed human isoenzyme, method of Crespi et al.; read-out: IC50 CYP 2C19. On the procedure:
as §1, §2

The structures appear in SMILES notation.

T1 sequence (P35968 834-1162 limits assumed, species assumed): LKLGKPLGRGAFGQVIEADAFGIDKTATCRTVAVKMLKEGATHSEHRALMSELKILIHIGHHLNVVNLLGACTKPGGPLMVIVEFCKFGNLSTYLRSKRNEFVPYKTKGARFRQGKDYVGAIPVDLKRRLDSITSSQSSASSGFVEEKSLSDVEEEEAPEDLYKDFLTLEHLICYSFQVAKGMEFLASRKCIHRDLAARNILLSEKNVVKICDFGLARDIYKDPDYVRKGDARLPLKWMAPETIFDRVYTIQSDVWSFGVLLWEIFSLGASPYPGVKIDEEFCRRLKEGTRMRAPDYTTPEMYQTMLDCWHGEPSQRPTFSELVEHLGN

For orientation: IC50 means the concentration at which inhibition is half-maximal. As for `Cn1cc2ccc(NC(=O)c3ccccc3NCc3ccnc(NC(=O)N4CCC(O)CC4)c3)cc2n1` [Example 1.1, 4-hydroxy-piperidine-1-carboxylic acid (4-{[2-(2-methyl-2H-indazol-6-ylcarbamoyl)-phenylamino]-methyl}-pyridin-2-yl)-amide], the IC50 against KDR-Kinase (VEGFR-2) was found to be 0.02 µM; in experiment [1], 16 µM; in experiment [2], 27 µM.
The matching figures for `Cn1cc2ccc(NC(=O)c3ccccc3NCc3ccnc(NC(=O)N4CCC(O)(C(F)(F)F)CC4)c3)cc2n1` [Example 1.2, 4-hydroxy-4-trifluoromethyl-piperidine-1-carboxylic acid (4-{[2-(2-methyl-2H-indazol-6-ylcarbamoyl)-phenylamino]-methyl}-pyridin-2-yl)-amide]: 0.017 µM, 19 µM and 12 µM.
Taken in the same sequence, the figures for `CN1CCN(C(=O)Nc2cc(CNc3ccccc3C(=O)Nc3ccc4cn(C)nc4c3)ccn2)CC1` [Example 3.0, 4-methyl-piperazine-1-carboxylic acid (4-{[2-(2-methyl-2H-indazol-6-ylcarbamoyl)-phenylamino]-methyl}-pyridin-2-yl)-amide] were 0.029 µM, 4.4 µM and 8.9 µM.
The matching figures for `Cn1cc2ccc(NC(=O)c3ccccc3NCc3ccnc(NC(=O)N4CCOCC4)c3)cc2n1` [Example 3.6, morpholine-4-carboxylic acid (4-{[2-(2-methyl-2H-indazol-6-ylcarbamoyl)-phenylamino]-methyl}-pyridin-2-yl)-amide]: 0.029 µM, 13 µM and 9 µM.
